# Experimental data from ChEMBL document CHEMBL1201862, “PubChem BioAssay data set” (2004).
#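 In this assay, cells in 96-well plates receive the compound at five concentrations for 48 hours. Endpoints are linearly interpolated between the surrounding concentrations. The concentration for 50% growth inhibition is given as GI50.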 Active and inactive are the calls of the source. Cut-off read from the data, not from the text of the source: active = GI50 up to about 1.1 µM and inactive = higher.
# Assays:
# Test in all cases: NCI tumour cell line growth inhibition, 48 h
# COLO 205 = tested on: COLO 205
# SR = tested on: SR
# OVCAR-5 = tested on: OVCAR-5
# K562 = tested on: K562
# NCI-H522 = tested on: NCI-H522
# CAKI-1 = tested on: CAKI-1
# SK-MEL-5 = tested on: SK-MEL-5
# MOLT-4 = tested on: MOLT-4
# SK-MEL-28 = tested on: SK-MEL-28
# PC-3 = tested on: PC-3
# EKVX = tested on: EKVX
# BT-549 = tested on: BT-549
# NCI-H226 = tested on: NCI-H226
# SF-295 = tested on: SF-295
# SF-268 = tested on: SF-268
# SN12C = tested on: SN12C
# UACC-257 = tested on: UACC-257
# SNB-19 = tested on: SNB-19
# HCT-116 = tested on: HCT-116
Compound,GI50 (COLO 205),GI50 (SR),GI50 (OVCAR-5),GI50 (K562),GI50 (NCI-H522),GI50 (CAKI-1),GI50 (SK-MEL-5),GI50 (MOLT-4),GI50 (SK-MEL-28),GI50 (PC-3),GI50 (EKVX),GI50 (BT-549),GI50 (NCI-H226),GI50 (SF-295),GI50 (SF-268),GI50 (SN12C),GI50 (UACC-257),GI50 (SNB-19),GI50 (HCT-116)
CN(Cc1cc(Br)cc(Br)c1O)Cc1c(O)ccc2ccccc12,19.1 µM (inactive),20.6 µM (inactive),17.6 µM (inactive),19.8 µM (inactive),26.7 µM (inactive),16.1 µM (inactive),17.4 µM (inactive),10.4 µM (inactive),20 µM (inactive),16.3 µM (inactive),16.9 µM (inactive),22.4 µM (inactive),20.6 µM (inactive),21.5 µM (inactive),24.9 µM (inactive),14.9 µM (inactive),17.3 µM (inactive),17.2 µM (inactive),16.7 µM (inactive)
c1cc(CSc2ncnc3[nH]cnc23)ccn1,> 100 µM (inactive),34.4 µM (inactive),> 100 µM (inactive),27.8 µM (inactive),42.2 µM (inactive),> 100 µM (inactive),> 100 µM (inactive),34.7 µM (inactive),> 100 µM (inactive),> 100 µM (inactive),> 100 µM (inactive),73.8 µM (inactive),> 100 µM (inactive),> 100 µM (inactive),92.9 µM (inactive),> 100 µM (inactive),> 100 µM (inactive),> 100 µM (inactive),77.8 µM (inactive)
O=C(n1[nH]c(=O)n(-c2ccc([N+](=O)[O-])cc2)c1=O)C(Cl)(Cl)Cl,> 75 µM (inactive),> 75 µM (inactive),> 75 µM (inactive),> 75 µM (inactive),> 75 µM (inactive),> 75 µM (inactive),> 75 µM (inactive),> 75 µM (inactive),> 75 µM (inactive),> 75 µM (inactive),> 75 µM (inactive),> 75 µM (inactive),> 75 µM (inactive),> 75 µM (inactive),> 75 µM (inactive),> 75 µM (inactive),> 75 µM (inactive),> 75 µM (inactive),> 75 µM (inactive)
Cn1c(=O)oc2cc(C(=O)CSC(=S)N3CCCCCC3)ccc21,> 100 µM (inactive),56.2 µM (inactive),> 100 µM (inactive),57.1 µM (inactive),> 100 µM (inactive),> 100 µM (inactive),> 100 µM (inactive),41.3 µM (inactive),> 100 µM (inactive),99.1 µM (inactive),> 100 µM (inactive),> 100 µM (inactive),> 100 µM (inactive),87.9 µM (inactive),> 100 µM (inactive),> 100 µM (inactive),> 100 µM (inactive),> 100 µM (inactive),73.6 µM (inactive)
C=CC[C@H]1[C@H](O[Si](C)(C)C(C)(C)C)C=CC(=O)[C@@H]1CC(=O)OCC,15.3 µM (inactive),15 µM (inactive),14.1 µM (inactive),3.13 µM (inactive),12.5 µM (inactive),12.4 µM (inactive),11 µM (inactive),22 µM (inactive),17.9 µM (inactive),9.59 µM (inactive),11.9 µM (inactive),16.5 µM (inactive),14.8 µM (inactive),13.5 µM (inactive),14.4 µM (inactive),16.3 µM (inactive),3.98 µM (inactive),13 µM (inactive),11.4 µM (inactive)
Fc1cc(C2=C[C@H](c3ccc4c(c3)OCO4)NC(=S)N2)c(Cl)cc1Cl,20.9 µM (inactive),31.9 µM (inactive),44.1 µM (inactive),32.1 µM (inactive),31.6 µM (inactive),34.8 µM (inactive),10.3 µM (inactive),23.4 µM (inactive),40.3 µM (inactive),21.4 µM (inactive),22.2 µM (inactive),57 µM (inactive),59.2 µM (inactive),31.9 µM (inactive),45.7 µM (inactive),27.4 µM (inactive),26.3 µM (inactive),57.4 µM (inactive),27.5 µM (inactive)
Nc1ccc(OCCCc2c(-c3ccccc3)[nH]c(N)nc2=O)cc1,26 µM (inactive),> 100 µM (inactive),> 100 µM (inactive),74.5 µM (inactive),18.4 µM (inactive),91.6 µM (inactive),41.1 µM (inactive),34.5 µM (inactive),27.5 µM (inactive),41.7 µM (inactive),0.398 µM (active),22.5 µM (inactive),31 µM (inactive),34.8 µM (inactive),> 100 µM (inactive),50.7 µM (inactive),80.5 µM (inactive),67.6 µM (inactive),29 µM (inactive)
N#Cc1nc(-c2ccccn2)c(-c2ccccn2)nc1C#N,1.97 µM (inactive),1.82 µM (inactive),3.32 µM (inactive),5.85 µM (inactive),1.64 µM (inactive),2.04 µM (inactive),1.85 µM (inactive),4.19 µM (inactive),3.96 µM (inactive),4.88 µM (inactive),3.15 µM (inactive),2.36 µM (inactive),0.593 µM (active),0.811 µM (active),1.25 µM (inactive),4.82 µM (inactive),3.65 µM (inactive),4.1 µM (inactive),0.624 µM (active)
Nc1nc(Cl)c(N)c(NCC2(CO)CC(OCc3ccccc3)C2)n1 (centres undefined),> 100 µM (inactive),6.5 µM (inactive),> 100 µM (inactive),74.6 µM (inactive),> 100 µM (inactive),> 100 µM (inactive),20.4 µM (inactive),> 100 µM (inactive),> 100 µM (inactive),> 100 µM (inactive),> 100 µM (inactive),> 100 µM (inactive),> 100 µM (inactive),> 100 µM (inactive),> 100 µM (inactive),> 100 µM (inactive),48.4 µM (inactive),> 100 µM (inactive),44.8 µM (inactive)
CC1(C)CN=C(Nc2ccc(Cl)cc2)S1,> 100 µM (inactive),65.6 µM (inactive),> 100 µM (inactive),> 100 µM (inactive),> 100 µM (inactive),> 100 µM (inactive),62.7 µM (inactive),58.5 µM (inactive),> 100 µM (inactive),> 100 µM (inactive),64 µM (inactive),> 100 µM (inactive),> 100 µM (inactive),> 100 µM (inactive),> 100 µM (inactive),> 100 µM (inactive),70 µM (inactive),> 100 µM (inactive),69.5 µM (inactive)
Cn1c2ccccc2c(=NNc2ccccc2C(=O)O)c2ccccc21,16.3 µM (inactive),11.9 µM (inactive),30.3 µM (inactive),8.97 µM (inactive),12 µM (inactive),23.3 µM (inactive),13.7 µM (inactive),10.9 µM (inactive),20.2 µM (inactive),12.3 µM (inactive),11.8 µM (inactive),19.1 µM (inactive),16.2 µM (inactive),17.6 µM (inactive),15.8 µM (inactive),23.7 µM (inactive),23.8 µM (inactive),24.4 µM (inactive),13.5 µM (inactive)
